Measured values published in ChEMBL document CHEMBL5653631, “A Potent and Selective ULK1 Inhibitor Suppresses Autophagy and Sensitizes Cancer Cells to Nutrient Stress” (iScience, 2018).

Assays:
[1] = target: Interleukin-1 receptor-associated kinase 1 (Homo sapiens) (UniProt P51617); experiment: Inhibition of human recombinant IRAK1 at 40 nM in presence of ATP by radiometric assay relative to control
[2] = target: Serine/threonine-protein kinase PAK 1 (Homo sapiens) (UniProt Q13153); experiment: Inhibition of human recombinant PAK1 at 40 nM in presence of ATP by radiometric assay relative to control
[3] = target: T1, Dual specificity tyrosine-phosphorylation-regulated kinase 2 (Homo sapiens) (UniProt Q92630); experiment: Inhibition of human recombinant DYRK2 at 40 nM in presence of ATP by radiometric assay relative to control
T1 sequence (whole entry): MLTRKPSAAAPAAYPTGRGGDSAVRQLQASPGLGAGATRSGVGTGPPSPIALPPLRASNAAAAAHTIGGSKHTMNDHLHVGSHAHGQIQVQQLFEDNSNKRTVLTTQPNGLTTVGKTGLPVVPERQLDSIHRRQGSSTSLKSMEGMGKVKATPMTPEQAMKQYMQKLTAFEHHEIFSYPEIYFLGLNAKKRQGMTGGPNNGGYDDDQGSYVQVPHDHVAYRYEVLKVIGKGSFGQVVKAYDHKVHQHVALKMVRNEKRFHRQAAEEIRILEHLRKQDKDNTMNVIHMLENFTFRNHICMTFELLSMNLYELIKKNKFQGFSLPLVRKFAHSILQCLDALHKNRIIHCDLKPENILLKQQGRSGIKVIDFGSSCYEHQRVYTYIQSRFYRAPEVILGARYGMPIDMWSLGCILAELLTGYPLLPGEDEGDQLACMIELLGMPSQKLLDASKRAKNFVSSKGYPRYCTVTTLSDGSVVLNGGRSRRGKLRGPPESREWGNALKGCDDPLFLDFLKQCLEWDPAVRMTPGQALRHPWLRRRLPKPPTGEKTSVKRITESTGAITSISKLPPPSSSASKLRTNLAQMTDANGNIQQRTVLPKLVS

[4] = target: T2, Serine/threonine-protein kinase Nek11 (Homo sapiens) (UniProt Q8NG66); experiment: Inhibition of human recombinant NEK11 at 40 nM related to control ULK1
T2 sequence (whole entry): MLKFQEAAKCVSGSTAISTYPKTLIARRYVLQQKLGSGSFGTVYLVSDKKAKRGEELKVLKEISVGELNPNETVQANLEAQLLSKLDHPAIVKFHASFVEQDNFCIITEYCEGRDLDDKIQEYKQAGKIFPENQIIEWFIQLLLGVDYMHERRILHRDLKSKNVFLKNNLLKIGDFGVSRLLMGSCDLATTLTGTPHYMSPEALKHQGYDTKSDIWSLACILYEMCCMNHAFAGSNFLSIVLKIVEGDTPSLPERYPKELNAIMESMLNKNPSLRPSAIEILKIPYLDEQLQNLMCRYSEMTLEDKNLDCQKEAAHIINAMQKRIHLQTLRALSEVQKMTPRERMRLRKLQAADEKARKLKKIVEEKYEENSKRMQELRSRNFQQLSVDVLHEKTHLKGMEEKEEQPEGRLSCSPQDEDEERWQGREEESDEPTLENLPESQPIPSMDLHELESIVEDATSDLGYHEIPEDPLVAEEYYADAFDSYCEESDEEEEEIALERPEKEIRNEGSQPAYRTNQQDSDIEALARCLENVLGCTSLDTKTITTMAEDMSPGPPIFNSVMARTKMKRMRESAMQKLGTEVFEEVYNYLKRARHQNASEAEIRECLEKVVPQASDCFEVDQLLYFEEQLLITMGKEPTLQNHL

[5] = target: T3, Serine/threonine-protein kinase STK11 (Homo sapiens) (UniProt Q15831); experiment: Inhibition of human recombinant LKB1 at 15 nM in presence of ATP by radiometric assay relative to control
T3 sequence (whole entry): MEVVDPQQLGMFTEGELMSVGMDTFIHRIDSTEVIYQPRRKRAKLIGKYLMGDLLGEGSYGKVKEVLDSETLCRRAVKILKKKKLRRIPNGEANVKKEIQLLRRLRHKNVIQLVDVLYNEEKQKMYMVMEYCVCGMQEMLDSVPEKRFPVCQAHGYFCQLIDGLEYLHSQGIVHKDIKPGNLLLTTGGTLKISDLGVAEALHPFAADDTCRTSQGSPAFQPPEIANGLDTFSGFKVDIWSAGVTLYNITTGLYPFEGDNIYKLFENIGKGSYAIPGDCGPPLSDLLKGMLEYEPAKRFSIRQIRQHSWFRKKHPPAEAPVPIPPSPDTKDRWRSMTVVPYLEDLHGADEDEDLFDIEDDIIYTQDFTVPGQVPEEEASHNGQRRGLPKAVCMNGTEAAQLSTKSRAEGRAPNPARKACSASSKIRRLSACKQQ

[6] = target: SRSF protein kinase 1 (Homo sapiens) (UniProt Q96SB4); experiment: Inhibition of human recombinant SRPK1 at 15 nM related to control ULK1
SRSF protein kinase 1 (Homo sapiens), sequence (Q96SB4 whole entry): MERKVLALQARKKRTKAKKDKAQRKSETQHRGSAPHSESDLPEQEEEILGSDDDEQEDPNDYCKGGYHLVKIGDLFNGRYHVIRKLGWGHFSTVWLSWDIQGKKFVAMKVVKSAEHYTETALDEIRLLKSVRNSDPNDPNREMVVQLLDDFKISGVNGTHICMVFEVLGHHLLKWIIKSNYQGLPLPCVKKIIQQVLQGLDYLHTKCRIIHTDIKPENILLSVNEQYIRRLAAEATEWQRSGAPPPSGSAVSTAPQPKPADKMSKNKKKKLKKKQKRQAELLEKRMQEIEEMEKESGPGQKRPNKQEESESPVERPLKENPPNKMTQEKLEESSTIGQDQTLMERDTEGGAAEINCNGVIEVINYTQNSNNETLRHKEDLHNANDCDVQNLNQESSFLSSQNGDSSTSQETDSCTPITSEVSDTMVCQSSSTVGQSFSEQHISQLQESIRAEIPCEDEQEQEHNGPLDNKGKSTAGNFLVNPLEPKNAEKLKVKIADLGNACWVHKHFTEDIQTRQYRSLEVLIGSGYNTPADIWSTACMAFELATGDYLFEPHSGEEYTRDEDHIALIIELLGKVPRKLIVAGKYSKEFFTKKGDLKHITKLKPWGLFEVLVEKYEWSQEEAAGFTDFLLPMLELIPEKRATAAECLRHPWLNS

[7] = target: Tyrosine-protein kinase Fyn (Homo sapiens) (UniProt P06241); experiment: Inhibition of human recombinant FYN at 15 nM related to control ULK1
[8] = target: Serine/threonine-protein kinase MAK (Homo sapiens) (UniProt P20794); experiment: Inhibition of human recombinant MAK at 15 nM related to control ULK1
Serine/threonine-protein kinase MAK (Homo sapiens), sequence (P20794 whole entry, looked up): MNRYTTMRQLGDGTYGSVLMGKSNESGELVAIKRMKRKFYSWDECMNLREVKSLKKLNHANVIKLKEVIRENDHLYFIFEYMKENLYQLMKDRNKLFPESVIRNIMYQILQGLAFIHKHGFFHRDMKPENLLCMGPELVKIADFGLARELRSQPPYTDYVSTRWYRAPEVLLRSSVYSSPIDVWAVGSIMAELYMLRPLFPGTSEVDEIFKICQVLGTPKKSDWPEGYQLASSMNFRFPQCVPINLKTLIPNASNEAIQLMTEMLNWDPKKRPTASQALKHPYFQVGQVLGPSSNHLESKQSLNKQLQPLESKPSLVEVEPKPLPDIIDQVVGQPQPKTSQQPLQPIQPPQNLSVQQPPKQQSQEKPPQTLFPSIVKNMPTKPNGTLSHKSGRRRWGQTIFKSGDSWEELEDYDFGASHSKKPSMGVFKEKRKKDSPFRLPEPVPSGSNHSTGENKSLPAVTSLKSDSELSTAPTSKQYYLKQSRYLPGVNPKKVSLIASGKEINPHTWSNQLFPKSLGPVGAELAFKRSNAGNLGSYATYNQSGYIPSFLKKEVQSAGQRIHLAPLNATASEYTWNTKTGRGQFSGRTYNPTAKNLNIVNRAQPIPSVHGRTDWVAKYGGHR

[9] = target: Cyclin-dependent kinase-like 3 (Homo sapiens) (UniProt Q8IVW4); experiment: Inhibition of human recombinant CDKL3 at 15 nM in presence of ATP by radiometric assay relative to control
[10] = target: Serine/threonine-protein kinase Chk2 (Homo sapiens) (UniProt O96017); experiment: Inhibition of human recombinant CHK2 at 15 nM in presence of ATP by radiometric assay relative to control
Serine/threonine-protein kinase Chk2 (Homo sapiens), sequence (O96017 whole entry): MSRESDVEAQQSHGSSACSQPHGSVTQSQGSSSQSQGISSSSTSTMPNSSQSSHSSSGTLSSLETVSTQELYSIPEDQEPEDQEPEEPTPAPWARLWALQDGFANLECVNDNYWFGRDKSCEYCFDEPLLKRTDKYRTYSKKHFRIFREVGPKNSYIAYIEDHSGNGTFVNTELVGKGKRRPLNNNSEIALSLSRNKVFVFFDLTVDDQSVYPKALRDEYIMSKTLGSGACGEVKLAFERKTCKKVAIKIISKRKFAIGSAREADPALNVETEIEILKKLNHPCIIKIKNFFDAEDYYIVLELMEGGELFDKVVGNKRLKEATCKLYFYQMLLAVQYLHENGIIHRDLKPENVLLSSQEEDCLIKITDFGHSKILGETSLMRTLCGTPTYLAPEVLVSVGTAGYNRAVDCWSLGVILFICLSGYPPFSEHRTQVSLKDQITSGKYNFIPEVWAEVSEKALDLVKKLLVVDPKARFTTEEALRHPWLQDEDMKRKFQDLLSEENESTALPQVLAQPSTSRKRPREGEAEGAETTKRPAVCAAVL

[11] = target: Death-associated protein kinase 1 (Homo sapiens) (UniProt P53355); experiment: Inhibition of human recombinant DAPK1 at 500 nM related to control ULK1
Death-associated protein kinase 1 (Homo sapiens), sequence (P53355 whole entry, looked up): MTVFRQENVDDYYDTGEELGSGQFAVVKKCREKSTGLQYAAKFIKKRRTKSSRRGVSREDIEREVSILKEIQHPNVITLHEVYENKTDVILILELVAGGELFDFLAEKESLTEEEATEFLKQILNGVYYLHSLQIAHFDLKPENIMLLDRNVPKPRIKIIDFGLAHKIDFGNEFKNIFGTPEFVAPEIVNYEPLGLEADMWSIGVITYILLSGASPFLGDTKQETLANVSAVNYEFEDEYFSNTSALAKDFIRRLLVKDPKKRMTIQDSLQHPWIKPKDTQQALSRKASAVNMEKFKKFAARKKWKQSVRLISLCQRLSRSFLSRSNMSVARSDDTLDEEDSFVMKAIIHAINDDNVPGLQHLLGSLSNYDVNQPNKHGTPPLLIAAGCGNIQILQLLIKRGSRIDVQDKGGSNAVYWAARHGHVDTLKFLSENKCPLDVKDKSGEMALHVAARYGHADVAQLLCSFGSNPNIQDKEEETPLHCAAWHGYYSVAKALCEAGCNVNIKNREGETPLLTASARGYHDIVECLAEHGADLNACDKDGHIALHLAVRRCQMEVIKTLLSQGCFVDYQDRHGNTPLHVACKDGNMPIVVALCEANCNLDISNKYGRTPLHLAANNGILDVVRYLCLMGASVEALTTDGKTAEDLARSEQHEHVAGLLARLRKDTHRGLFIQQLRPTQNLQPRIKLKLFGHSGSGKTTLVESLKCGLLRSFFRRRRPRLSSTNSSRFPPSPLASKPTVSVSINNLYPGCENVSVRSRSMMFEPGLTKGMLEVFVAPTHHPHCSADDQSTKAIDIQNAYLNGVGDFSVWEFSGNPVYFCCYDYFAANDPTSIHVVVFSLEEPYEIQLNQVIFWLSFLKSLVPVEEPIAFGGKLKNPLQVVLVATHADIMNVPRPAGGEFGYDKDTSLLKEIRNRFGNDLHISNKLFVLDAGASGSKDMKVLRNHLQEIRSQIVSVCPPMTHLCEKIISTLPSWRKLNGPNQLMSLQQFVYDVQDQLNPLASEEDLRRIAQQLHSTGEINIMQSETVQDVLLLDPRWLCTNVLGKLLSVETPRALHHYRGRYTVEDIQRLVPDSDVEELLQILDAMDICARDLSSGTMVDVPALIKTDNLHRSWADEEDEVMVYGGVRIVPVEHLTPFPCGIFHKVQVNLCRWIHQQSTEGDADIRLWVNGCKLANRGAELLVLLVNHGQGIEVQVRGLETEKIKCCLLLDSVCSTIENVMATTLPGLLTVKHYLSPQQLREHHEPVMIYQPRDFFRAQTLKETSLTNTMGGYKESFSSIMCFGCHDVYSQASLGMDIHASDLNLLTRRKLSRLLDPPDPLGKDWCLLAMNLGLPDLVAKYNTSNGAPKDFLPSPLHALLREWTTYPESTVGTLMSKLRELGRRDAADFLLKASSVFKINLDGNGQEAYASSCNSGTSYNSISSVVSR

[12] = target: T4, cAMP-dependent protein kinase catalytic subunit PRKX (Homo sapiens) (UniProt P51817); experiment: Inhibition of human recombinant PRKX at 500 nM in presence of ATP by radiometric assay relative to control
T4 sequence (whole entry): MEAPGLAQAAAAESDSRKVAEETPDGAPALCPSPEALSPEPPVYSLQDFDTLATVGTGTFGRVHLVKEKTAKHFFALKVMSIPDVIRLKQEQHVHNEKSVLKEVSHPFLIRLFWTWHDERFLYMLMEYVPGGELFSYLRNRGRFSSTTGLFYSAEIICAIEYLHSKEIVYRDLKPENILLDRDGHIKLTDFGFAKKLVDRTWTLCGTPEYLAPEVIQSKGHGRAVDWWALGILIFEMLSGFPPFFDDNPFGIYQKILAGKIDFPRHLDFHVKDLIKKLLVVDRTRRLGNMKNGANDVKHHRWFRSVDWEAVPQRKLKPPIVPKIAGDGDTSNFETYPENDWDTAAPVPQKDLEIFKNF

[13] = target: Myosin light chain kinase 2, skeletal/cardiac muscle (Homo sapiens) (UniProt Q9H1R3); experiment: Inhibition of human recombinant skMLCK at 500 nM in presence of ATP by radiometric assay relative to control
Myosin light chain kinase 2, skeletal/cardiac muscle (Homo sapiens), sequence (Q9H1R3 whole entry): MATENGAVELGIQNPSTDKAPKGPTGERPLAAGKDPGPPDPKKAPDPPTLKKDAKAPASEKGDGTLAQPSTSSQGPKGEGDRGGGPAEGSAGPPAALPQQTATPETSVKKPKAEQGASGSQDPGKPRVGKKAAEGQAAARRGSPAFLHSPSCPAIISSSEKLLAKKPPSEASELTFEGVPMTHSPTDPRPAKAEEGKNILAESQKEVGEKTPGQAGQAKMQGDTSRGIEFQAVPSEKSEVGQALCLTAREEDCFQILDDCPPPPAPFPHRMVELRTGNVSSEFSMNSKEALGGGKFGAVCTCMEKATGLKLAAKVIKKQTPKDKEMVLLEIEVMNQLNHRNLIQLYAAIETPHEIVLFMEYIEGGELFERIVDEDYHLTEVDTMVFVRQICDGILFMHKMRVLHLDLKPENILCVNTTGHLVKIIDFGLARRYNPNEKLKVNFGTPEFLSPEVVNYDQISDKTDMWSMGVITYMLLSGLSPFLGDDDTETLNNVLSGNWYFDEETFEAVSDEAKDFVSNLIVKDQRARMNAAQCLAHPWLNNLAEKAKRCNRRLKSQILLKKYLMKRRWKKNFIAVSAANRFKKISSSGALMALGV

Interleukin-1 receptor-associated kinase 1 (Homo sapiens), sequence (P51617 whole entry, looked up): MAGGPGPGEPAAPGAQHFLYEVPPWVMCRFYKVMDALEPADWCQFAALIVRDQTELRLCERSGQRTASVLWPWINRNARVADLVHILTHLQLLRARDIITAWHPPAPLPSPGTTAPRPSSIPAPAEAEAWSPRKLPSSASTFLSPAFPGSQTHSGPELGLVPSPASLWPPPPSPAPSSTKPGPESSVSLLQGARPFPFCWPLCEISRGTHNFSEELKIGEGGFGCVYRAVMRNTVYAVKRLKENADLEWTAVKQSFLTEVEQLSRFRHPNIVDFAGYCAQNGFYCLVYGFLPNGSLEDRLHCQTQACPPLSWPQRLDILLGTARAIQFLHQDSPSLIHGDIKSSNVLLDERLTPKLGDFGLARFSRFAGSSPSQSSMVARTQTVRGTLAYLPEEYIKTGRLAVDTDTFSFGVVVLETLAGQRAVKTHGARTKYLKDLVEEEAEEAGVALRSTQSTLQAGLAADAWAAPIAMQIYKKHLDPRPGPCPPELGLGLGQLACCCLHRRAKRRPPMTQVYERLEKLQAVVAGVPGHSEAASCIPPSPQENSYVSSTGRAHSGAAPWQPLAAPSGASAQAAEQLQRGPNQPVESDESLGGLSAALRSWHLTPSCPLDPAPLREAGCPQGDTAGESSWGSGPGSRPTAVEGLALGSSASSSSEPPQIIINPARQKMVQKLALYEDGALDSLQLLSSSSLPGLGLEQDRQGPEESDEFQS

O=C(N[C@@H](C1CC1)C(F)(F)F)c1cc(-c2cnn3cc(-c4ccc(F)cc4)cnc23)cs1
inhibition [1]: 7% | inhibition [2]: 0% | inhibition [3]: 11% | fold change (FC) [4]: 0.11

CC(C)[C@H](NC(=O)c1cc(-c2cnn3cc(-c4ccc(OCCN5CCCCC5)cc4)cnc23)cs1)C(F)(F)F
inhibition [5]: 0% | fold change (FC) [6]: 0 | fold change (FC) [7]: 0.18 | fold change (FC) [8]: 0.06 | inhibition [9]: 34% | inhibition [10]: 0%

CNC(=O)c1ccccc1Oc1nc(Nc2cc(OC)c(OC)c(OC)c2)ncc1Br
fold change (FC) [11]: 0 | inhibition [12]: 16% | inhibition [13]: 0%
